Measurements published in patent US11685716B2, “Plant growth inhibiting agent, and plant growth inhibiting method using same” (NATIONAL UNIVERSITY CORPORATION KUMAMOTO UNIVERSITY, priority 2017, dated 2023).

How the values were obtained:
Japanese bristlegrass = assay: Spray treatment to stems and leaves, killing weed index (Evaluation 10); type: in vivo; settings: 2000 g active ingredient per hectare, two weeks later
Protocol: (§1) POA allyl phenyl ether (4.1 parts by weight), POE-POP glycol (1 part by weight), POE sorbitan laurate (0.8 parts by weight), glycerin (2.6 parts by weight), dimethylformamide (65.9 parts by weight), N-methylpyrrolidone (5.1 parts by weight), cyclohexanone (15.4 parts by weight), and aromatic hydrocarbon (5.1 parts by weight) were mixed and dissolved to prepare an emulsion. The compounds of the present invention (4 mg) were dissolved in this emulsion (100 μL) to prepare a test emulsion. In addition, POA means “polyoxyalkylene”, POE means “polyoxyethylene”, and POP means “polyoxypropylene.”
(§2) Four hundred μL of the above test emulsion was diluted with 7600 μL of water to use as a test spray liquid.
(§3) Further, 400 μL of the above test emulsion was diluted with 1600 μL of a 1% Tween20 aqueous solution to use as a spray liquid for a small amount spray test.
(§4) For a comparative spray liquid, 53 μL of a 30% pendimethalin emulsion (Gogosan emulsion: manufactured by BASF Japan) as a control pesticides was diluted with 7947 μL of water. Further, for a comparative spray liquid for a small amount spray test, 53 μL of the 30% pendimethalin emulsion was diluted with 1947 μL of water.
(§5) A 150 cm^2 pot was filled with a soil, seeds of each purple amaranth, Japanese bristlegrass, southern crabgrass, and velvet leaf were sown on the surface layer, lightly covered with a soil and grown in a greenhouse. When each plant grew to a plant height of 2 to 9 cm, the test spray liquid was sprayed to the stem and leaf parts with a small spraying machine such that an active ingredient amount was 2000 g per hectare and a sprayed liquid amount was 1000 L per hectare.
(§6) Similarly, the test spray liquid for a small amount spray test was sprayed to the stem and leaf parts with a small spraying machine such that an active ingredient amount was 2000 g per hectare and a sprayed liquid amount was 250 L per hectare.
(§7) Two weeks later, the above-ground grass weight in non-treated areas and the above-ground grass weight in treated areas, by the weed, were measured to calculate a killing weed rate by the following calculating formula.
(§8) (a) Calculating Formula of Weeding Rate Killing weed rate (%)=(above-ground grass weight in non-treated area−above-ground grass weight in treated area)/(above-ground grass weight in non-treated area)×100 (b) Killing Weed Indexes
(§9) The obtained killing weed rates were evaluated, such that a killing weed index was “10” when a killing weed rate is 100%, as “9” when a killing weed rate is 99% to 90%, “8” when a killing weed rate is 89% to 80%, “7” when a killing weed rate is 79% to 70%, “6” when a killing weed rate is 69% to 60%, “5” when a killing weed rate is 59% to 50%, “4” when a killing weed rate is 49% to 40%, “3” when a killing weed rate is 39% to 30%, “2” when a killing weed rate is 29% to 20%, “1” when a killing weed rate is 19% to 10%, and “0” when a killing weed rate is 9% to 0%.

purple amaranth = assay: as above; type: in vivo; settings: 2000 g active ingredient per hectare, two weeks later
Protocol: as §1, §2, §3, §4, §5, §6, §7, §8, §9

southern crabgrass = assay: as above; type: in vivo; settings: 2000 g active ingredient per hectare, two weeks later
Protocol: as §1, §2, §3, §4, §5, §6, §7, §8, §9

velvet leaf [1] = assay: as above; type: in vivo; settings: 2000 g active ingredient per hectare, two weeks later
Protocol: as §1, §2, §3, §4, §5, §6, §7, §8, §9

thale cress = assay: Plant growth inhibition index, thale cress on agar medium in test tube (Evaluation 8, 9); type: in vivo, thale cress (Col-0, wild-type strain); parameters: key: 0: No effect; 1: Growth of the root part was inhibited 50% or less compared with non-treated area.; 2: Growth of the root part was inhibited 50% or more compared with non-treated area.; 3: Growth of the root part was substantially inhibited.; 4: Germination was inhibited; settings: for index on the plant growth inhibition effect: 200 μM, 8 days (Evaluation 8); for Index: Concentration 200 μM, 8 days (Evaluation 9, Table 2)
Protocol: 0.44% (w/v) Mixed salts for Murashige and Skoog medium (SIGMA), 1% (w/v) sucrose, and 0.05% (w/v) MES were mixed, and pH of the solution was adjusted to pH 5.7 with potassium hydroxide. 1.5% (w/v) Agar was added to the mixture, which was sterilized at 120° C. in an autoclave for 20 minutes. The test compound and dimethylformamide containing 1.5% of polyoxyethylenesorbitan monolaurate for a control experiment, were added at this stage and blended. In addition, the compound was used by adjusting an addition concentration to 200 μM. Four ml each of the medium was dispensed in sterile glass test tube ([…] RIKA GLASS CO., LTD.) to prepare agar medium.
As a plant material, Col-0, which is a wild-type strain of thale cress, was used.
Seeds, after their surfaces were sterilized, were planted on the agar medium, and the growth of the plant was carried out in a plant incubator (CFH-405) under the conditions of an illuminance of 3 at 23° C. with constant light. The plants on the agar medium were grown for 8 days in the chamber.
The plant growth inhibition effect of the compounds was evaluated by conversion to indexes according to the following investigation criteria.

Ragweed = assay: Seed treatment, plant growth inhibition index (Evaluation 11); type: in vivo; parameters: key: 0: No effect; 1: Growth of the root part was inhibited 50% or less compared with non-treated area.; 2: Growth of the root part was inhibited 50% or more compared with non-treated area.; 3: Growth of the root part was substantially inhibited.; 4: Germination was inhibited
Protocol: (§10) The compound of the present invention (2 mg) was dissolved in a 1.5% Tween dimethylformamide solution (100 μL) to use as a test chemical solution.
(§11) Eight mL of sterilized water was poured to a cherry cup (100Φ×45 mm) lined with a filter paper, subsequently 81.1 μL of the sterilized water was removed, and 81.1 μL of the test chemical solution was added such that a final concentration of the compound was 800 μM.
(§12) Further, cherry cups were similarly prepared such that a final concentration of the compound was 200 μM.
(§13) Seeds (Japanese millet: 3 grains, velvet leaf: 6 grains, Ragweed: 8 grains, morning glory: 2 grains) were planted on the filter paper in the cherry cups, followed by growing the plants in a thermostatic chamber at 25° C. under a light-dark cycle in which a light period is 12 hours and a dark period is 12 hours for 6 days.
(§14) In addition, with regards to the compound (9a) and the compound (9b), the plants were tested for 7 days.
(§15) Plant growth inhibition effects of the compounds were evaluated by conversion to indexes according to the following investigation criteria.

morning glory = assay: as above; type: in vivo; parameters: key: 0: No effect; 1: Growth of the root part was inhibited 50% or less compared with non-treated area.; 2: Growth of the root part was inhibited 50% or more compared with non-treated area.; 3: Growth of the root part was substantially inhibited.; 4: Germination was inhibited
Protocol: as §10, §11, §12, §13, §14, §15

Japanese millet = assay: as above; type: in vivo; parameters: key: 0: No effect; 1: Growth of the root part was inhibited 50% or less compared with non-treated area.; 2: Growth of the root part was inhibited 50% or more compared with non-treated area.; 3: Growth of the root part was substantially inhibited.; 4: Germination was inhibited
Protocol: as §10, §11, §12, §13, §14, §15

velvet leaf [2] = assay: as above; type: in vivo; parameters: key: 0: No effect; 1: Growth of the root part was inhibited 50% or less compared with non-treated area.; 2: Growth of the root part was inhibited 50% or more compared with non-treated area.; 3: Growth of the root part was substantially inhibited.; 4: Germination was inhibited
Protocol: as §10, §11, §12, §13, §14, §15

[3] = sprayed liquid amount 1000 L/ha
[4] = 200 μM, 6 days (9a, 9b: 7 days)

| SMILES | killing weed index, Japanese bristlegrass (Japanese bristlegrass; sprayed liquid amount 250 L/ha) | killing weed index, Japanese bristlegrass (Japanese bristlegrass; [3]) | killing weed index, Purple amaranth (purple amaranth; sprayed liquid amount 250 L/ha) | killing weed index, Purple amaranth (purple amaranth; [3]) | killing weed index, Southern crabgrass (southern crabgrass; sprayed liquid amount 250 L/ha) | killing weed index, Southern crabgrass (southern crabgrass; [3]) | killing weed index, Velvet leaf (velvet leaf [1]; sprayed liquid amount 250 L/ha) | killing weed index, Velvet leaf (velvet leaf [1]; [3]) | index on the plant growth inhibition effect (thale cress) | plant growth inhibition index, Ragweed (Ragweed; [4]) | plant growth inhibition index, Ragweed (Ragweed; 800 μM, 6 days) | plant growth inhibition index, Morning glory (morning glory; [4]) | plant growth inhibition index, Morning glory (morning glory; 800 μM, 6 days) | plant growth inhibition index, Japanese millet (Japanese millet; [4]) | plant growth inhibition index, Japanese millet (Japanese millet; 800 μM, 6 days) | plant growth inhibition index, Velvet leaf (velvet leaf [2]; [4]) | plant growth inhibition index, Velvet leaf (velvet leaf [2]; 800 μM, 6 days) | Index (thale cress) |
| --- | --- | --- | --- | --- | --- | --- | --- | --- | --- | --- | --- | --- | --- | --- | --- | --- | --- | --- |
| CCCCCCCCCOn1cccc1C(=O)O [Compound 8b] | 5 (“5” when a killing weed rate is 59% to 50%) | 5 (“5” when a killing weed rate is 59% to 50%) | 8 (“8” when a killing weed rate is 89% to 80%) | 3 (“3” when a killing weed rate is 39% to 30%) | 2 (“2” when a killing weed rate is 29% to 20%) | 4 (“4” when a killing weed rate is 49% to 40%) | 6 (“6” when a killing weed rate is 69% to 60%) | 0 (“0” when a killing weed rate is 9% to 0%) | 4 | 3 (Growth of the stem and leave parts was inhibited 30% or more compared with non-treated area, or growth of the only root part was inhibited 60% or more compared with non-treated area.) | 9 (Growth of the stem and leave parts was inhibited 90% or more compared with non-treated area.) | 3 (Growth of the stem and leave parts was inhibited 30% or more compared with non-treated area, or growth of the only root part was inhibited 60% or more compared with non-treated area.) | 8 (Growth of the stem and leave parts was inhibited 80% or more compared with non-treated area.) | 3 (Growth of the stem and leave parts was inhibited 30% or more compared with non-treated area, or growth of the only root part was inhibited 60% or more compared with non-treated area.) | 10 | 0 | 8 (Growth of the stem and leave parts was inhibited 80% or more compared with non-treated area.) | – |
| CCCCCCCCCOn1cccc1C(=O)N1CCOCC1 [Compound 9h] | – | – | – | – | – | – | – | – | – | 0 | 6 (Growth of the stem and leave parts was inhibited 60% or more compared with non-treated area.) | 0 | 4 (Growth of the stem and leave parts was inhibited 40% or more compared with non-treated area, or growth of the only root part was inhibited 80% or more compared with non-treated area.) | 3 (Growth of the stem and leave parts was inhibited 30% or more compared with non-treated area, or growth of the only root part was inhibited 60% or more compared with non-treated area.) | 6 (Growth of the stem and leave parts was inhibited 60% or more compared with non-treated area.) | 3 (Growth of the stem and leave parts was inhibited 30% or more compared with non-treated area, or growth of the only root part was inhibited 60% or more compared with non-treated area.) | 5 (Growth of the stem and leave parts was inhibited 50% or more compared with non-treated area, or growth of the only root part was inhibited 100% or more compared with non-treated area.) | 3 |
| CCCCCCCCCOn1cc(C)cc1C(=O)O [Compound 9c] | 2 (“2” when a killing weed rate is 29% to 20%) | 3 (“3” when a killing weed rate is 39% to 30%) | 1 (“1” when a killing weed rate is 19% to 10%) | 0 (“0” when a killing weed rate is 9% to 0%) | 3 (“3” when a killing weed rate is 39% to 30%) | 5 (“5” when a killing weed rate is 59% to 50%) | 5 (“5” when a killing weed rate is 59% to 50%) | 0 (“0” when a killing weed rate is 9% to 0%) | – | – | – | – | – | – | – | – | – | 3 |
| O=C(O)c1cccn1OCc1ccc(Oc2ccccc2)cc1 [Compound 8f] | – | – | – | – | – | – | – | – | 3 | 0 | 5 (Growth of the stem and leave parts was inhibited 50% or more compared with non-treated area, or growth of the only root part was inhibited 100% or more compared with non-treated area.) | 0 | 0 | 3 (Growth of the stem and leave parts was inhibited 30% or more compared with non-treated area, or growth of the only root part was inhibited 60% or more compared with non-treated area.) | 4 (Growth of the stem and leave parts was inhibited 40% or more compared with non-treated area, or growth of the only root part was inhibited 80% or more compared with non-treated area.) | 0 | 5 (Growth of the stem and leave parts was inhibited 50% or more compared with non-treated area, or growth of the only root part was inhibited 100% or more compared with non-treated area.) | – |
| O=C(O)c1cccn1OCCCC(F)(F)F [Compound 8i] | 1 (“1” when a killing weed rate is 19% to 10%) | 3 (“3” when a killing weed rate is 39% to 30%) | 0 (“0” when a killing weed rate is 9% to 0%) | 0 (“0” when a killing weed rate is 9% to 0%) | 2 (“2” when a killing weed rate is 29% to 20%) | 2 (“2” when a killing weed rate is 29% to 20%) | 0 (“0” when a killing weed rate is 9% to 0%) | 0 (“0” when a killing weed rate is 9% to 0%) | 2 (Growth of the root part was inhibited 50% or more compared with non-treated area.) | – | – | – | – | – | – | – | – | – |
